In this assay the test system is pig liver esterase (PLE; EC 3.1.1.1). In words: release of p-nitroaniline at […] nm, saturation curve. As to conditions: PBS pH 7.7, 10% v/v DMSO, 25 °C, PLE 0.25 μg/mL, substrate 0.5-33 μM. It counts as biochemical, Sus scrofa.

As for `CC(=O)Oc1cc(C)cc(C)c1C(C)(C)CC(=O)Nc1ccc([N+](=O)[O-])cc1` [compound 1, prochromophore 1], the Km (as a rule, the substrate concentration at which the rate is half of its maximum) came out at 14 µM.

(Values after publication PMC2803762 (Molecules, 2008).)
